This test is described as follows: Plasma OA/SA ratio in DELIS trial patients (fatty acid composition of plasma). Type of test: in vivo, human. The conditions noted are these: for OA/SA ratio in plasma, Average: statin base drug. From the text: The ratio of oleic acid (OA) to stearic acid (SA) in plasma can be calculated by collecting blood from a patient and measuring the levels of the individual fatty acids such as OA and SA or the ratio of the individual fatty acids in the total fatty acids by, for example, gas chromatography. The OA/SA ratio can be also calculated from the individual fatty acid levels obtained by performing a clinical test item, that is, fractionation of fatty acids in total lipids which can be performed by, for example, SRL, Inc. The measurement method and calculation method are not particularly limited. The fatty acid fractionation into 24 fractions is a testing method which involves fractionating fatty acids including unsaturated fatty acids into specific 24 fractions and quantitatively determining the fractions by gas chromatography. More specifically, the plasma fatty acids are extracted by the method of, for example, Folch et al. (Folch J. et al., J. Biol. Chem. 226, 497-509 (1957)). It is possible to use tricosanoic acid (C23:0) as an internal standard, to convert each fatty acid into a methyl ester by addition of boron trifluoride and methanol, and to quantitatively determine the methyl ester of each fatty acid by measurement using a gas chromatograph such as SHIMAZU GC-17A (Shimadzu Corporation) and a capillary column such as BPX70 (with an internal diameter of 0.25 mm and a length of 30 m; SGE International Ltd.). However, this is not the sole method of the invention. This trial corresponds to a partial analysis of the results obtained in DELIS (Japan EPA Lipid Intervention Study) which is a large scale clinical trial of high purity EPA preparation which was presented in the American College of Cardiology 2005 Annual Meeting (for general information on DELIS, see Lancet, vol. 369, pp. 1090-1098 (2007)). […]

Each structure is given as a SMILES string.

Turning to `CC/C=C\C/C=C\C/C=C\C/C=C\C/C=C\CCCC(=O)OCC` [EPA-E, ethyl icosapentate], the “change of OA/SA ratio in plasma” value (after the administration of EPA-E) is given as “significant decrease”. Moreover, the “OA/SA ratio in plasma, Average” value (before start of trial) worked out at 2.96 and the “OA/SA ratio in plasma, Average” value (during whole observation period, Epadel 600 mg 3 times a day oral) came to 2.78.

For the origin of these results see patent US20110118350A1, “COMPOSITION FOR PREVENTING CARDIOVASCULAR EVENT IN HIGH-RISK PATIENT” (MOCHIDA PHARMACEUTICAL CO., LTD., priority 2008, published 2011).
